This is an account of results in PubChem BioAssay (NCI).

Experiment in all cases: NCI anticancer screen, dose series, 48 h
In experiment [1] the test system is HCT-15 colon.
Experiment [2] concerns KM12 colon.
Experiment [3] has as its system NCI-H226 lung.
Experiment [4] concerns NCI-H522 lung.
Experiment [5] deals with SN12C renal.
The test system of experiment [6] is OVCAR-8 ovarian.
Experiment [7] concerns NCI-H460 lung.
For experiment [8], the system named is MDA-MB-231 breast.
Experiment [9] deals with PC-3 prostate.

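Growth conditions: 96-well plates. Treatment: test compound, 48 hours, 5 concentrations. Analysis: linear interpolation between bracketing concentrations; unreached endpoints set to highest concentration. At the GI50, growth is halved. TGI: total growth inhibition.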

As for `Cc1ccc(NC(=O)C2C(=O)N(c3ccc(C)c(C)c3)C(=O)/C2=N\NC(N)=S)cc1C` (stereo unspecified), the TGI in experiment [1], in experiment [2], in experiment [3], in experiment [4] and in experiment [5] was greater than 100 µM throughout.

On to `Cc1[nH]nc2c1C(=O)C=C(N(CCO)c1ccccc1)C2=O`, for which the TGI in experiment [1], in experiment [2], in experiment [3], in experiment [4], in [6] and in [5] was greater than 100 µM each time.

Take `CCCCN(CCCC)C(=O)C(=O)C(C)C(=O)CC` (stereo unspecified): the TGI in experiment [1], in [2], in [3], in [7], in [4] and in [6] was greater than 100 µM each time. The compound further came in with a TGI in [5] greater than 100 µM.

In the case of `CCCCCCNc1nc(N2CCOCC2)c2[nH]c(NCCCCCC)nc2n1`, the GI50 in experiment [1] was 1.64 µM; in experiment [2] it was 1.67 µM; in experiment [8] it was 1.81 µM; in experiment [3], 1.7 µM; in experiment [7], 1.55 µM; in experiment [4], 1.58 µM. Moreover, the results for the GI50 in [6], in [9] and in experiment [5] were 1.77 µM, 1.68 µM and 1.76 µM, respectively. Moreover, the TGI worked out at 3.22 µM in experiment [1]; 3.06 µM in experiment [2]; 3.3 µM in experiment [8]; 4 µM in experiment [3]; 2.97 µM in [7]; 3.37 µM in experiment [4]. The TGI in experiment [6] stood at 3.74 µM; in experiment [9], 3.54 µM; in [5], 3.32 µM.

As for `Cc1nc(Nc2ccccc2)sc1C(=O)NNc1ccc([N+](=O)[O-])cc1[N+](=O)[O-]`, the TGI in experiment [1] was greater than 100 µM; in experiment [2], greater than 100 µM; in [3] it was greater than 100 µM; in [7], greater than 100 µM; in [4], 49.3 µM; in experiment [6] it was greater than 100 µM. The same compound showed a TGI in experiment [5] greater than 100 µM.

In the case of `c1cc(-c2cn[nH]c2)cc(-c2cn[nH]c2)c1`, the TGI in experiment [1] was 96.4 µM; in experiment [2], greater than 100 µM; in experiment [7] it was greater than 100 µM; in experiment [4], greater than 100 µM; in experiment [6], greater than 100 µM; in experiment [5] it was greater than 100 µM.

For the compound `CCc1cccc(C(C)CC)c1NC(=O)C(=O)C(CC(=O)Nc1ccc(Cl)c(Cl)c1)C(=O)OC` (stereo unspecified), the TGI in experiment [1], in experiment [2], in [3], in [7], in [4] and in [6] was greater than 100 µM throughout. For the same compound, the TGI in experiment [5] was greater than 100 µM.

Consider `CC1CCP(=O)(c2ccccc2)CC1` (stereo unspecified), for which the TGI in [1], in [2], in [7], in experiment [6] and in experiment [5] was greater than 100 µM in each case.

For the compound `COc1ccc(C(=O)C(C(=O)C(=O)Nc2nccs2)c2ccc(OC)cc2)cc1` (stereo unspecified), the TGI in experiment [1], in experiment [2], in [7], in experiment [4], in [6] and in experiment [5] was greater than 100 µM throughout.

`O=C(O)/C(=C\c1ccccc1Cl)S(=O)(=O)c1ccccc1`: the TGI in experiment [1], in experiment [2], in [7], in [4], in [6] and in [5] was greater than 100 µM each time.

Regarding `N[C@@H]1CCCC[C@@H]1N.O=C([O-])CN(CP(=O)([O-])[O-])CP(=O)([O-])[O-].[Pt+2]`, the GI50 in experiment [1], in experiment [2], in [3], in [7], in [4] and in experiment [6] was greater than 100 µM each time. For the same compound, the GI50 in [5] was greater than 100 µM. Also, the TGI in [1], in experiment [2], in experiment [3], in [7], in [4] and in experiment [6] was greater than 100 µM throughout. The compound also registered a TGI in experiment [5] greater than 100 µM.

As for `Cc1cc(N(CCC#N)CCC#N)ccc1N=Nc1cccc(Cl)c1`, the TGI in experiment [2], in [3], in [7], in experiment [4], in experiment [6] and in experiment [5] was greater than 100 µM throughout.

On to `C#C[C@H](CCCC)OC(=O)N[C@H](C)c1ccccc1`, for which the TGI in [2] was greater than 100 µM; in experiment [7], greater than 100 µM; in experiment [4], 86.8 µM; in experiment [6] it was greater than 100 µM; in experiment [5] it was greater than 100 µM.

As to `Nc1ccc2ccc(NS(=O)(=O)N3CCCCC3)cc2c1`, the GI50 in experiment [1] is 0.44 µM; in experiment [2], 0.273 µM; in experiment [8], 0.728 µM; in [3] it was 2.56 µM; in experiment [7] it was 0.409 µM; in [4], 0.205 µM. The GI50 in experiment [6] is 1.63 µM; in experiment [9], 1.28 µM; in [5] it was 0.653 µM. For the same compound, the TGI in experiment [1] is greater than 100 µM; in [2], greater than 65.7 µM; in [8], greater than 33.7 µM; in experiment [3] it was greater than 100 µM; in experiment [4], 0.76 µM; in experiment [6] it was greater than 100 µM. For the same compound, the TGI in experiment [9] and in experiment [5] was greater than 100 µM each time.

For the compound `BrC1=CC=C2NCCCCCCN=C3C=CC(Br)=CC=C3NCCCCCCN=C2C=C1`, the TGI in experiment [1], in experiment [2], in experiment [3], in experiment [7], in experiment [4] and in experiment [6] was greater than 25.5 µM each time. In [5], the TGI was greater than 25.5 µM.

With `Cc1cccc(C)c1NC(=O)CCC(=O)NC(N)=S`, the TGI in [1], in [2], in experiment [3], in experiment [7], in experiment [4] and in experiment [6] was greater than 100 µM in each case. In [5], the TGI is greater than 100 µM.

For the compound `Cn1c2ccccc2c(=O)c2c([N+](=O)[O-])ccc(NCCN)c21`, the TGI worked out at 26.7 µM in experiment [1]; 19.7 µM in experiment [2]; 27.2 µM in [3]; 22.8 µM in [7]; 20.5 µM in experiment [4]; 24.5 µM in experiment [6]. The same compound came in with a TGI in [5] of 17.2 µM.

Consider `COc1ccc(/C=C/C(=O)c2cc3c(N)c(C(=O)Nc4ccccc4C)sc3nc2C)cc1`, for which the GI50 in experiment [1] was 0.52 µM; in experiment [2], 1.07 µM; in [8] it was 1.18 µM; in [3], 0.619 µM; in experiment [7], 1.53 µM; in experiment [4], 0.194 µM. The GI50 is 1.14 µM in [6], 0.285 µM in [9] and 0.833 µM in [5]. Also, the TGI in [1] was greater than 50 µM; in experiment [2], 4.8 µM; in experiment [8], greater than 38.5 µM; in [3], 12.2 µM; in experiment [7] it was greater than 16.6 µM; in experiment [4], greater than 50 µM. The TGI in experiment [6], in experiment [9] and in experiment [5] was greater than 50 µM throughout.

In the case of `CCCCCC(O)(CCCCC)CCCCCCCCC1=C(O)c2[nH]c(=O)ccc2C(=O)C1=O`, the TGI in [1] worked out at 16.3 µM; in experiment [2], 23.6 µM; in experiment [3], 28.8 µM; in experiment [7], 24 µM; in [4], 20.8 µM; in [6], 23.1 µM. In experiment [5], the TGI turned out to be 21 µM.

Consider `c1cc[c]([Sn]([S]c2cccc3cccnc23)([S]c2cccc3cccnc23)[c]2ccccc2)cc1`, for which the GI50 in experiment [1] was 0.153 µM; in experiment [2], 0.23 µM; in [3], 0.175 µM; in experiment [7], 0.228 µM; in [6], 0.25 µM; in [5] it was 0.284 µM. Besides, the TGI was 0.446 µM in experiment [1]; 0.616 µM in experiment [2]; 1.06 µM in [3]; 0.643 µM in experiment [7]; 0.895 µM in experiment [6]; 0.954 µM in [5].

Regarding `N#CC(C(=N/NC(N)=S)/C(=N/NC(N)=S)C(C#N)c1ccc(Cl)cc1)c1ccc(Cl)cc1` (stereo unspecified), the TGI in experiment [1], in experiment [2], in experiment [3], in experiment [7], in experiment [4] and in experiment [6] was greater than 100 µM each time. Besides, the TGI in experiment [5] was greater than 100 µM.

Consider `CCCCCCCCCCCC(O)=C1C(=O)CC(O)CC1=O` (stereo unspecified), for which the TGI in experiment [2], in experiment [3], in experiment [7], in experiment [4], in experiment [6] and in experiment [5] was greater than 100 µM throughout.

For `CC1(C)CC(=O)C(=[N+]=[N-])C(=O)C1`, the TGI in experiment [1], in experiment [2], in [3], in experiment [4] and in experiment [5] was greater than 100 µM each time.
